Assay results reported in paper PMC3938723, “Learning from Host-Defense Peptides: Cationic, Amphipathic Peptoids with Potent Anticancer Activity” (PLoS ONE, 2014).
Non-standard residues stand in square brackets, D forms with d. Residues, ends and D or L forms follow the SMILES beside them. Nspe = C[C@H](NCC(=O)O)c1ccccc1; Nlys = NCCCCNCC(=O)O

Columns and labels:
[1] = Analytical RP-HPLC elution as relative measure of molecular hydrophobicity; type: physicochemical; conditions: percentage of acetonitrile at elution, analytic RP-HPLC, C18 column, linear water/acetonitrile (0.1% trifluoroacetic acid) gradient 5%-95% acetonitrile over 30 min
Excerpt: Peptoids were synthesized using an ABI 433A peptide synthesizer (Applied Biosystems, Inc.) on Rink amide MBHA resin (EMD Biosciences, Gibbstown, NJ) using the submonomer protocol, [24]. Briefly, the amine on the nascent chain is bromoacetylated or chloroacetylated followed by SN2 displacement of bromide or chloride by a primary amine to form the side chain. Resin-bound peptoids were then exposed to a mixture of trifluoroacetic acid (TFA): triisopropylsilane: water (95∶2.5∶2.5, volume ratio) for 10 minutes to cleave peptoids from the resin. Crude peptoids were purified by reversed-phase high performance liquid chromatography (RP-HPLC) (Waters Corporation) using a C18 column and a linear acetonitrile/water gradient. A final purity >95% as measured by analytical RP-HPLC (Waters Corporation) was achieved, and the identity of each peptoid was confirmed using electrospray ionization mass spectrometry (ESI/MS). Pexiganan was synthesized by standard Fmoc chemistry on an ABI 433A peptide synthesizer ([…]). Unless indicated otherwise, all reagents were purchased from Sigma Aldrich (St. Louis, MO). Among the submonomers used, Nspe was derived from (S)-N-(1-phenylethyl)amine; Npm from benzylamine ([…]); NHis from histamine (2-[4-imidazolyl]ethylamine); NLeu from isobutylamine; NLys from N-tert-butoxycarbonyl-1,4-butanediamine (CNH Technologies, MA). Guanidinylation of NLys was carried out according to the reported procedure. When NHis was used in the peptoid sequence, chloroacetic acid was used. 5(6)-Carboxyfluorescein was used to label the N-terminus of peptoid 1 [28].
Peptoids were utilized herein as a peptidomimetic scaffold to capture the cationic, amphipathic nature of anticancer peptides, as well as to improve molecular stability and to increase chemical diversity. The design of anticancer peptoids were derived from previous antimicrobial peptoids and were further optimized hererin to improve the activity and selectivity of peptoids against anionic membranes, [24], [25]. […] Several novel variants were designed based on peptoid 1 but with different charges, amphipathicity, length, and helicity to change their activity or selectivity. The sequences of these variants, the solvent composition at RP-HPLC elution as a relative measure of molecular hydrophobicity, molecular net charges and their charge-to-length ratio are summarized in Table 1. […] Pexiganan, a clinically-relevant peptide analog of magainin 2 which was developed for topical treatment for diabetic foot infection, and LL-37, the only known human cathelicidin which is a non-selective antimicrobial peptide, were also tested for comparison.

LNCaP (prostate cancer) = assay: MTS cell viability assay, LNCaP; type: cell-based; conditions: 72 h
Method: (§1) This assay is a colorimetric method for determining the number of viable cells in proliferation. Aliquots of 100 µl media containing 1×10^4 cells were distributed into each well of a 96-well plate (BD Falcon). The following day, when cell density reaches about ∼40% confluency, the cell media were removed and replaced with serial dilutions of peptoid stocks in culturing media. For peptoid dilutions, peptoid stocks were initially diluted in media at 100 µM and then diluted by half in series using a multichannel pipette, and maintained in 100 µl media for each concentration with triple repeats. After peptoid solutions were transferred onto cells in 96-well plates, cells were incubated at 37°C for certain time periods. Then 20 µl of the CellTiter 96 Aqueous Non-Radioactive cell proliferation assay (Promega) reagent which contains a tetrazolium compound, [3-(4,5-dimethylthiazol-2-yl)-5-(3-carboxymethoxyphenyl)-2-(4-sulfophenyl)-2H-tetrazolium, inner salt; MTS(a)], was added to each well and cells were further incubated for 2 h to metabolize. The absorbance of formazan products were measured at 490 nm in a microplate reader (Molecular Devices). Percentage of cell viability = (A -A testblank)/(A control -A blank)×100, where A is the absorbance of the test well and A control the average absorbance of wells with cells not treated with peptoids. A testblank (media, MTS, and diluted peptoids) and A blank (media and MTS) were background absorbances measured in the absence of cells.
(§2) The activity and selectivity of these peptoids against cancer cells were evaluated in vitro. Their cytotoxicity was tested in three cancer cell lines, MCF-7 (human breast cancer), LNCaP (human prostate cancer), and OVCAR-3 (human ovarian cancer). To estimate the selectivity of these peptoids in vitro, hemolytic activities of some peptoids were cited from previously published work (Table 2 **column), and the MRC-5 cell line (human fibroblasts derived from fetal lung tissues) and primary dermal fibroblasts were also tested as normal cell controls. Briefly, cells were treated with peptoids diluted in culturing media for certain time periods, and then cell viability was measured via MTS assays.

OVCAR3 (ovarian cancer) = assay: MTS cell viability assay, OVCAR3; type: cell-based; conditions: 72 h
Method: (§3) MCF-7, MCF-7/TxT50 and OVCAR-3 (available in ATCC) were kindly provided by Professor Branimir Sikic's lab at Stanford University, and were cultured in McCoy's 5A media (GIBCO) with 10% FBS and antibiotics. Primary dermal fibroblasts were gifts from Lifeline Cell Technology and were cultured <6 passages according to the protocol Lifeline provides. All the cells were cultured in cell incubators (Thermo Scientific) at 37°C with 5% CO2.
as §1, §2

[2] = system: Primary dermal fibroblast; assay: MTS cell viability assay, primary dermal fibroblasts; type: cell-based; conditions: 72 h
Method: as §3, §1, §2

[3] = system: human breast cancer xenograft; assay: Human breast cancer orthotopic xenograft mouse model, tumor growth; type: in vivo; conditions: ~1 mg/kg (100 µl of 110 µM in PBS) injected into mammary fat pad three times a week, NSG mice, versus control peptoid 1 11mer-NLeu; caliper; P = 0.0014, t test
Method: (§4) 80,000 cells from a dissociated second generation metastatic breast cancer tumor were suspended in Medium 199 containing 25% Matrix Matrigel (Becton Dickinson 354248) and injected into the mammary fat pad of 4–8 week old NOD.Cg-Prkdc^scid Il2rg^tm1Wjl/SzJ (NSG) mice. After two weeks, 100 µl PBS containing 110 µM peptoid 1 or control peptide was injected into the mammary fat pad three times a week, roughly at a dose of 1 mg/kg. Tumor volumes were determined using direct caliper measurements following […] of treatment.
(§5) Human breast cancer cells were implanted in the mammary fat pad of immunocompromised mice.
Figure 5 Reduction of tumor volumes in a human breast cancer xenograft mouse model treated with peptoid 1. Cancer cells (8×10^4 cells) isolated from the second generation xenografts of human breast cancer tissues were implanted s.c. into the lower left mammary fat pads of 5–6-week-old immunocompromised NSG (NOD.Cg-Prkdc^scid Il2rg^tm1Wjl/SzJ) female mice. Two weeks after cell implantation, 100 µl of peptoid 1 and control peptoids were injected into xenografts at 110 µM in PBS (∼1 mg/kg) three times a week, up to 8 weeks. Tumor sizes were measured by a caliper. P = 0.0014, t test.

mice = assay: Acute toxicity observation in xenograft mice; type: in vivo; conditions: intratumor injections ~1 mg/kg three times a week, xenograft NSG mice
Method: as §4, §5

MCF-7 cells = assay: Apoptotic DNA ladder assay; type: cell-based, human; conditions: 24 h treatment

SMILES: C[C@@H](c1ccccc1)N(CC(N)=O)C(=O)CN(C(=O)CN(CCCCN)C(=O)CN(C(=O)CN(C(=O)CN(CCCCN)C(=O)CN(C(=O)CN(C(=O)CN(CCCCN)C(=O)CN(C(=O)CN(C(=O)CNCCCCN)[C@@H](C)c1ccccc1)[C@@H](C)c1ccccc1)[C@@H](C)c1ccccc1)[C@@H](C)c1ccccc1)[C@@H](C)c1ccccc1)[C@@H](C)c1ccccc1)[C@@H](C)c1ccccc1 [Peptoid 1, H-(NLys-Nspe-Nspe)4-NH2] (H-[Nlys][Nspe][Nspe][Nlys][Nspe][Nspe][Nlys][Nspe][Nspe][Nlys][Nspe][Nspe]-NH2)
- HPLC elution [1]: 65.1 % ACN
- LC50 LNCaP (prostate cancer) (LNCaP (prostate cancer)): 5 µM
- LC50 OVCAR3 (ovarian cancer) (OVCAR3 (ovarian cancer)): 6 µM
- LC50 Primary dermal fibroblast [2]: 8 µM
- tumor growth [3]: significantly inhibited the tumor growth
- acute side effects in mice (mice): without causing any obvious acute side effects
- typical apoptotic DNA ladders (MCF-7 cells): not observed
